According to ChEMBL document CHEMBL1201862, “PubChem BioAssay data set” (2004):
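These data come from cells grown in 96-well plates and exposed to compound for 48 hours at five concentrations. At the GI50, growth is halved.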 Calls of active or inactive are those of the source. Cut-off read from the data, not from the text of the source: active = GI50 up to about 1.1 µM and inactive = higher. Where a SMILES comes first, the peptide text is derived from it. [ ]: non-standard residue; d: D form. The star is where a group is joined. ξ: configuration not given here. ξPhe(4-NO2) = NC(Cc1ccc([N+](=O)[O-])cc1)C(=O)O; Boc = CC(C)(C)OC(=O)*

Tests used:
Assay in all cases: NCI tumour cell line growth inhibition, 48 h
NCI-H23 = system: NCI-H23
SW-620 = system: SW-620
SK-MEL-5 = system: SK-MEL-5
PC-3 = system: PC-3
CAKI-1 = system: CAKI-1
RPMI-8226 = system: RPMI-8226
TK-10 = system: TK-10
UACC-62 = system: UACC-62
EKVX = system: EKVX
UO-31 = system: UO-31
MCF7 = system: MCF7
RXF 393 = system: RXF 393
HCC 2998 = system: HCC 2998
U-251 = system: U-251
OVCAR-3 = system: OVCAR-3
HCT-15 = system: HCT-15
MDA-MB-435 = system: MDA-MB-435
OVCAR-8 = system: OVCAR-8
786-0 = system: 786-0

SMILES | GI50 (NCI-H23) | GI50 (SW-620) | GI50 (SK-MEL-5) | GI50 (PC-3) | GI50 (CAKI-1) | GI50 (RPMI-8226) | GI50 (TK-10) | GI50 (UACC-62) | GI50 (EKVX) | GI50 (UO-31) | GI50 (MCF7) | GI50 (RXF 393) | GI50 (HCC 2998) | GI50 (U-251) | GI50 (OVCAR-3) | GI50 (HCT-15) | GI50 (MDA-MB-435) | GI50 (OVCAR-8) | GI50 (786-0)
NC(Cc1c[nH]c2ccccc12)P(=O)(O)O (centres undefined) | > 100 µM (inactive) | > 100 µM (inactive) | > 100 µM (inactive) | > 100 µM (inactive) | > 100 µM (inactive) | > 100 µM (inactive) | > 100 µM (inactive) | > 100 µM (inactive) | > 100 µM (inactive) | > 100 µM (inactive) | > 100 µM (inactive) | > 100 µM (inactive) | > 100 µM (inactive) | > 100 µM (inactive) | > 100 µM (inactive) | > 100 µM | > 100 µM (inactive) | > 100 µM (inactive) | > 100 µM (inactive)
N[C@@H]1c2c(Br)sc(Br)c2C(=O)[C@H]1Br | 24.8 µM (inactive) | 18.7 µM (inactive) | 2.6 µM (inactive) | 37.2 µM (inactive) | 27.3 µM (inactive) | 7.45 µM (inactive) | > 100 µM (inactive) | 20.5 µM (inactive) | 34.4 µM (inactive) | 27.9 µM (inactive) | 36.7 µM (inactive) | 22.1 µM (inactive) | 31.3 µM (inactive) | 22.7 µM (inactive) | 30.6 µM (inactive) | 25.1 µM | 23 µM (inactive) | 20.5 µM (inactive) | 23.1 µM (inactive)
CCCCOc1ccc(/C=C/C2=[N+](CCO)CCO2)cc1 | > 100 µM (inactive) | 33.6 µM (inactive) | 68.5 µM (inactive) | 68.4 µM (inactive) | 67.5 µM (inactive) | 26.8 µM (inactive) | > 100 µM (inactive) | > 100 µM (inactive) | > 100 µM (inactive) | 32.1 µM (inactive) | 29.4 µM (inactive) | 17.9 µM (inactive) | 22.5 µM (inactive) | 34.4 µM (inactive) | 61.5 µM (inactive) | 51.9 µM | > 100 µM (inactive) | 70.1 µM (inactive) | 54.1 µM (inactive)
O=C(O)c1nc(-c2ccccc2)ncc1-c1nnnn1-c1ccccc1 | > 100 µM (inactive) | > 100 µM (inactive) | > 100 µM (inactive) | > 100 µM (inactive) | > 100 µM (inactive) | > 100 µM (inactive) | > 100 µM (inactive) | > 100 µM (inactive) | > 100 µM (inactive) | > 100 µM (inactive) | > 100 µM (inactive) | > 100 µM (inactive) | > 100 µM (inactive) | > 100 µM (inactive) | > 100 µM (inactive) | > 100 µM | > 100 µM (inactive) | > 100 µM (inactive) | > 100 µM (inactive)
COc1ccc2c(c1)C1=NCCN(CCO)c3ccc([N+](=O)[O-])c(c31)N2 | 0.652 µM (active) | 0.187 µM (active) | 0.366 µM (active) | 0.34 µM (active) | 0.366 µM (active) | 0.29 µM (active) | 0.63 µM (active) | 0.422 µM (active) | 0.705 µM (active) | 0.265 µM (active) | 0.42 µM (active) | 0.494 µM (active) | 0.574 µM (active) | 0.506 µM (active) | 0.785 µM (active) | 0.75 µM | 0.493 µM (active) | 0.201 µM (active) | 0.22 µM (active)
CC1OC(OC2C(CO)OC(O[C@H]3CC[C@@]4(C)C(=CC[C@H]5[C@@H]6C[C@@H]7O[C@](O)(CC[C@H](CO)COC8OC(CO)C(O)C(O)C8O)[C@@H](C)[C@@H]7[C@@]6(C)CC[C@@H]54)C3)C(OC3OC(C)C(O)C(O)C3O)C2O)C(O)C(O)C1O (some centres undefined) | > 100 µM (inactive) | > 100 µM (inactive) | > 100 µM (inactive) | > 100 µM (inactive) | > 100 µM (inactive) | > 100 µM (inactive) | > 100 µM (inactive) | > 100 µM (inactive) | > 100 µM (inactive) | > 100 µM (inactive) | > 100 µM (inactive) | > 100 µM (inactive) | > 100 µM (inactive) | > 100 µM (inactive) | > 100 µM (inactive) | 54 µM | > 100 µM (inactive) | > 100 µM (inactive) | > 100 µM (inactive)
CN(C)c1ccc(/C(F)=C(F)/C(F)=C(F)/C(F)=C(\F)c2ccc(Br)cc2)cc1 | 14.8 µM (inactive) | 22.1 µM (inactive) | 25.3 µM (inactive) | 15.2 µM (inactive) | 18.7 µM (inactive) | 32.7 µM (inactive) | > 75.5 µM (inactive) | 22.9 µM (inactive) | 22.9 µM (inactive) | 25.1 µM (inactive) | 9.46 µM (inactive) | 9.2 µM (inactive) | 18.2 µM (inactive) | 17.5 µM (inactive) | 9.38 µM (inactive) | 13.3 µM | 3.1 µM (inactive) | 33 µM (inactive) | 3.92 µM (inactive)
O=C1c2ccccc2C(=O)N1CCCSc1ccccc1 | 86.7 µM (inactive) | > 100 µM (inactive) | 32.7 µM (inactive) | 92 µM (inactive) | 93.1 µM (inactive) | 42.8 µM (inactive) | > 100 µM (inactive) | 71.6 µM (inactive) | 57.1 µM (inactive) | 60.5 µM (inactive) | 78.3 µM (inactive) | 63.7 µM (inactive) | 25.1 µM (inactive) | 91.4 µM (inactive) | 28.8 µM (inactive) | 92.7 µM | > 100 µM (inactive) | > 100 µM (inactive) | > 100 µM (inactive)
CCNC(=O)CNC(=O)C(Cc1ccc([N+](=O)[O-])cc1)NC(=O)OC(C)(C)C (centres undefined) (Boc-[ξPhe(4-NO2)]-Gly-NHEt) | > 100 µM (inactive) | > 100 µM (inactive) | > 100 µM (inactive) | > 100 µM (inactive) | > 100 µM (inactive) | > 100 µM (inactive) | > 100 µM (inactive) | > 100 µM (inactive) | > 100 µM (inactive) | > 100 µM (inactive) | > 100 µM (inactive) | > 100 µM (inactive) | > 100 µM (inactive) | > 100 µM (inactive) | > 100 µM (inactive) | > 100 µM | > 100 µM (inactive) | > 100 µM (inactive) | > 100 µM (inactive)
Nc1cc(N)c(/N=N/c2cccc3c(S(=O)(=O)O)cccc23)cc1/N=N/c1cc([N+](=O)[O-])ccc1O | 45 µM (inactive) | 28.8 µM (inactive) | 17.6 µM (inactive) | 18.5 µM (inactive) | 23.6 µM (inactive) | 35.6 µM (inactive) | 47 µM (inactive) | 22.3 µM (inactive) | > 100 µM (inactive) | 19 µM (inactive) | 32.6 µM (inactive) | 70.3 µM (inactive) | 23.2 µM (inactive) | 13.7 µM (inactive) | 9.08 µM (inactive) | 22.1 µM | 35.6 µM (inactive) | 23.4 µM (inactive) | 42.1 µM (inactive)
CC1(C)CC2=NO[Se]3=C2C(=NO3)C1 | 2.15 µM (inactive) | 3.16 µM (inactive) | 1.81 µM (inactive) | 0.394 µM (active) | 3.65 µM (inactive) | 3.14 µM (inactive) | 4.29 µM (inactive) | 2.27 µM (inactive) | 2.8 µM (inactive) | 2.98 µM (inactive) | 3.27 µM (inactive) | 3.15 µM (inactive) | 5.19 µM (inactive) | 3.69 µM (inactive) | 1.68 µM (inactive) | 0.811 µM | 3.43 µM (inactive) | 2.38 µM (inactive) | 1.94 µM (inactive)
